Common to all, as to assay: ≥ marks a high value that may be exact or a test limit, other limits are often not marked, values filed in µg/mL are converted to µM
Assay [1] deals with Acinetobacter baumannii MTCC 9829.
Assay [2] concerns Alcaligenes faecalis MTCC 1937.
Assay [3] deals with Alkalihalobacillus alcalophilus MTCC 860.
In assay [4] the test system is Bordetella bronchiseptica MTCC 6837.
In assay [5] the test system is Citrobacter freundii MTCC 1658.
Assay [6] relates to Citrobacter koseri MTCC 1657.
The subject of assay [7] is Corynebacterium glutamicum MTCC 2679.
The test system of assay [8] is Enterococcus faecalis MTCC 439.
Assay [9] concerns Escherichia coli K12 MG1655.
Assay [10] concerns Haemophilus influenzae MTCC 621.
The test system of assay [11] is Klebsiella aerogenes MTCC 111.
Assay [12] relates to Klebsiella oxytoca MTCC 2275.
The test system of assay [13] is Klebsiella pneumoniae MTCC 7407.
The test system of assay [14] is Pluralibacter gergoviae MTCC 3826.
Assay [15] has as its system Proteus mirabilis MTCC 3158.
Assay [16] has as its system Proteus vulgaris MTCC 1771.
For assay [17], the system named is Pseudomonas aeruginosa MTCC 3542.
The test system of assay [18] is Salmonella enterica MTCC 9844.
Assay [19] deals with Salmonella enterica subsp. enterica serovar Typhimurium ATCC 14028.
The subject of assay [20] is Shigella boydii MTCC 11947.
Assay [21] concerns Shigella flexneri MTCC 1457.
The subject of assay [22] is Staphylococcus aureus MTCC 3160.
In assay [23] the test system is Staphylococcus haemolyticus MTCC 3383.
For assay [24], the system named is Stenotrophomonas maltophilia MTCC 1890.
Assay [25] concerns Vibrio cholerae MTCC 3904.
The test system of assay [26] is Bacillus subtilis ATCC 6051.
Assay [27] has as its system Candida albicans ATCC 90028.
Assay [28] concerns Candida albicans SC5314.
Assay [29] relates to Candida krusei ATCC 6258.
For assay [30], the system named is Candida parapsilosis ATCC 22019.
Assay [31] deals with Escherichia coli K-12.
Assay [32] deals with Pseudomonas aeruginosa PAO1.
Assay [33] relates to Staphylococcus aureus ATCC 6538P.
The test system of assay [34] is Staphylococcus aureus ATCC 25923.
Assay [35] deals with Staphylococcus aureus USA 300 LAC.
Assay [36] deals with Staphylococcus aureus USA 300.
In assay [37] the test system is Escherichia coli ATCC 25922.
Assay [38] concerns Klebsiella pneumoniae ATCC 13883.

The source of these data is DBAASP.

In brackets after ≈: the same amount, converted by molar mass.

Take `CSCC[C@H](NC(=O)[C@H](CCCCN)NC(=O)[C@H](CCCCN)NC(=O)[C@H](CC(C)C)NC(=O)[C@H](C)N)C(=O)N[C@@H](CC(C)C)C(=O)N[C@@H](CCCN=C(N)N)C(=O)N[C@@H](CC(C)C)C(=O)N[C@@H](C)C(=O)N[C@@H](CCCCN)C(=O)N[C@@H](CCCN=C(N)N)C(=O)N[C@@H](CC(C)C)C(=O)N[C@@H](CO)C(=O)O` [ALKKMLRLAKRLS]: the MIC in assay [1] was not below 83.8 µM; in assay [2] it was not below 83.8 µM; in [3], not below 83.8 µM; in assay [4] it was 5.24 µM (≈ 8 µg/mL); in [5], not below 83.8 µM; in assay [6] it was not below 41.9 µM. The MIC in [7] is 10.5 µM (≈ 16 µg/mL); in assay [8], not below 83.8 µM; in assay [9], not below 41.9 µM; in assay [10] it was not below 41.9 µM; in assay [11], not below 83.8 µM; in [12], not below 83.8 µM. Further, the MIC in [13] was not below 83.8 µM; in assay [14], not below 83.8 µM; in assay [15], not below 83.8 µM; in [16], not below 83.8 µM; in assay [17] it was not below 83.8 µM; in assay [18], 20.9 µM (≈ 32 µg/mL). Further, the MIC in assay [19] is more than 83.8 µM; in assay [20], not below 41.9 µM; in assay [21] it was 20.9 µM (≈ 32 µg/mL); in [22], not below 83.8 µM; in [23] it was not below 83.8 µM; in [24] it was not below 83.8 µM. In addition, the MIC in assay [25] was not below 83.8 µM.

Regarding `CC(C)C[C@H](NC(=O)[C@H](C)N)C(=O)N[C@@H](Cc1c[nH]c2ccccc12)C(=O)N[C@@H](Cc1cnc[nH]1)C(=O)N[C@@H](Cc1cnc[nH]1)C(=O)N[C@@H](CC(C)C)C(=O)N[C@@H](CC(C)C)C(=O)N[C@@H](Cc1cnc[nH]1)C(=O)N[C@@H](Cc1cnc[nH]1)C(=O)N[C@@H](CC(C)C)C(=O)N[C@@H](CC(C)C)C(=O)N[C@@H](Cc1cnc[nH]1)C(=O)N[C@@H](CO)C(=O)N[C@@H](C)C(=O)N[C@@H](Cc1cnc[nH]1)C(=O)N[C@@H](Cc1cnc[nH]1)C(=O)N[C@@H](CC(C)C)C(=O)NCC(N)=O` [ALWHHLLHHLLHSAHHLG], the MIC in [26] was determined as 1.88 µM (≈ 3.99 µg/mL).

In the case of `CC[C@H](C)[C@H](NC(=O)CN)C(=O)N[C@@H](Cc1c[nH]c2ccccc12)C(=O)N[C@@H](CCCCN)C(=O)N[C@@H](CCCCN)C(=O)N[C@@H](Cc1c[nH]c2ccccc12)C(=O)N[C@H](C(=O)N[C@@H](CCCCN)C(=O)N[C@@H](CCCCN)C(=O)N[C@H](C(=O)N[C@H](C(=O)N[C@@H](CC(N)=O)C(=O)N[C@H](C(=O)N[C@@H](CC(C)C)C(=O)N[C@@H](CCCCN)C(=O)N[C@@H](CC(N)=O)C(=O)N[C@@H](CC(C)C)C(=O)N[C@@H](Cc1ccccc1)C(N)=O)C(C)C)C(C)C)C(C)C)[C@@H](C)CC` [GIWKKWIKKVVNVLKNLF], the MIC was 14.5 µM (≈ 32 µg/mL) in assay [27], 7.23 µM (≈ 16 µg/mL) in [28], 14.5 µM (≈ 32 µg/mL) in [29] and 7.23 µM (≈ 16 µg/mL) in assay [30].

Turning to `CC[C@H](C)[C@H](NC(=O)CN)C(=O)N[C@@H](Cc1c[nH]c2ccccc12)C(=O)N[C@@H](CCCCN)C(=O)N[C@@H](CCCCN)C(=O)N[C@@H](Cc1c[nH]c2ccccc12)C(=O)N[C@H](C(=O)N[C@@H](CCCCN)C(=O)N[C@@H](CCCCN)C(=O)N[C@@H](Cc1c[nH]c2ccccc12)C(=O)N[C@@H](CC(C)C)C(=O)N[C@@H](CCCCN)C(=O)N[C@@H](CCCCN)C(=O)N[C@@H](CC(C)C)C(=O)N[C@@H](CC(C)C)C(=O)N[C@@H](CCCCN)C(=O)N[C@@H](CCCCN)C(=O)N[C@@H](CC(C)C)C(=O)N[C@@H](Cc1c[nH]c2ccccc12)C(=O)N[C@@H](CCCCN)C(=O)N[C@@H](CCCCN)C(=O)NCC(=O)O)[C@@H](C)CC` [GIWKKWIKKWLKKLLKKLWKKG], the MIC in assay [27] turned out to be 22.6 µM (≈ 64 µg/mL); in assay [28], 11.3 µM (≈ 32 µg/mL); in assay [29] it was 22.6 µM (≈ 64 µg/mL); in [30], 22.6 µM (≈ 64 µg/mL).

For `CC(C)C[C@H](NC(=O)[C@H](CC(C)C)NC(=O)[C@H](CCCCN)NC(=O)[C@H](CC(C)C)NC(=O)[C@H](CC(C)C)NC(=O)[C@H](CCCCN)NC(=O)[C@H](CCCCN)NC(=O)[C@H](CC(C)C)NC(=O)[C@@H](N)CC(C)C)C(N)=O` [LLKKLLKLL], the MIC in assay [26], in assay [31], in assay [32] and in [33] was 1.56 µM (≈ 1.69 µg/mL) in each case.

Turning to `CC[C@H](C)[C@H](NC(=O)[C@H](CC(=O)O)NC(=O)[C@H](Cc1c[nH]c2ccccc12)NC(=O)[C@H](CC(C)C)NC(=O)[C@@H](N)CCCN=C(N)N)C(=O)N[C@H](C(=O)N[C@@H](CCCN=C(N)N)C(=O)N[C@@H](CCCN=C(N)N)C(=O)N[C@@H](Cc1c[nH]c2ccccc12)C(=O)N[C@H](C(=O)NCC(=O)N[C@@H](Cc1c[nH]c2ccccc12)C(=O)N[C@@H](CC(C)C)C(N)=O)C(C)C)C(C)C` [RLWDIVRRWVGWL], the MIC came out at 9.12 µM (≈ 16 µg/mL) in assay [32], 2.28 µM (≈ 4 µg/mL) in assay [34], 4.56 µM (≈ 8 µg/mL) in [35] and 1.14 µM (≈ 2 µg/mL) in assay [36].

For `CC[C@H](C)[C@H](NC(=O)[C@H](CCCN=C(N)N)NC(=O)[C@H](CCCN=C(N)N)NC(=O)[C@H](CC(C)C)NC(=O)[C@H](Cc1c[nH]c2ccccc12)NC(=O)[C@H](Cc1c[nH]c2ccccc12)NC(=O)[C@@H](N)Cc1c[nH]c2ccccc12)C(=O)N[C@@H](Cc1c[nH]c2ccccc12)C(N)=O` [WWWLRRIW], the MIC in assay [37] was 6.2 µM (≈ 8.06 µg/mL); in assay [38], 25 µM (≈ 32.5 µg/mL); in assay [32] it was more than 50 µM; in assay [35], 3.1 µM (≈ 4.03 µg/mL); in [36], 3.1 µM (≈ 4.03 µg/mL).

Consider `CC[C@H](C)[C@H](NC(=O)[C@H](CCCCN)NC(=O)[C@H](CCCN=C(N)N)NC(=O)[C@H](CC(C)C)NC(=O)[C@H](Cc1c[nH]c2ccccc12)NC(=O)[C@H](Cc1c[nH]c2ccccc12)NC(=O)[C@H](Cc1c[nH]c2ccccc12)NC(=O)[C@@H](N)Cc1c[nH]c2ccccc12)C(N)=O` [WWWWLRKI], for which the MIC came out at 12.5 µM (≈ 15.9 µg/mL) in [37], 8.8 µM (≈ 11.2 µg/mL) in assay [38] and 2.16 µM (≈ 2.74 µg/mL) in assay [35].
